Measured values published in US5770691A, “Discriminatory substrates for MMP hydrolysis” (Regents of the University of Minnesota, priority 1995, dated 1998).
Where a SMILES comes first, the peptide text is derived from it. [ ]: non-standard residue; d: D form. The star is where a group is joined. Dnp = O=[N+]([O-])c1ccc(*)c([N+](=O)[O-])c1; Mca = COc1ccc2c(CC(=O)*)cc(=O)oc2c1; Nva = CCC[C@H](N)C(=O)O

Assays:
MMP-3 [1] = target: T1, MMP-3 (Homo sapiens, UniProt P08254); test: Fluorometric hydrolysis of synthetic Mca/Lys(Dnp) substrates by MMP-3; type: biochemical; set-up: made in house; host or cells: native secreted protein purified from culture medium of human rheumatoid synovial cells; details: for kcat /Km: pH 7.5
Description: (§1) All MMPs were purified in zymogen form. ProMMP-1 (Suzuki et al., Biochem., 29, 10261 (1990)), proMMP-2 (Okada et al., Eur. J. Biochem., 194, 721 (1990)), and proMMP-3 (Ito et al., Arch. Biochem. Biophys., 267, 211 (1988)) were purified from the culture medium of human rheumatoid synovial cells stimulated with rabbit macrophage-conditioned medium. ProMMP-9 was purified from the culture medium of HT-1080 cells as described in Morodomi et al., Biochem. J., 285, 603 (1992). ProMMP-2 and proMMP-9 were activated by reacting with 1 mM 4-aminophenylmercuric acetate at 37° C. for 45 minutes and 32 hours, respectively. ProMMP-1 was activated by reacting with 1 mM 4-aminophenylmercuric acetate and an equimolar amount of MMP-3 at 37° C. for 6 hours. After activation, MMP-3 was completely removed from MMP-1 by affinity chromatography using an anti-MMP-3 IgG Affi-Gel 10 column. The resin, Affi-Gel 10 (Biorad, Emoryville, Calif.), was coupled to anti-MMP-3 IgG (Okada et al., Annals of Rheumat. Dis., 48, 645 (1989)) per the manufacturer's protocol. Pro-MMP-3 was activated by reacting with 5 μg/mL chymotrypsin at 37° C. for 2 hours. Chymotrypsin was inactivated with 2 mM diisopropylfluorophosphate. The amounts of active MMP-1, MMP-2, and MMP-3 were determined by titration with tissue inhibitor of metalloproteinase-1(TIMP1) over a concentration range of 0.1-3 μg/mL, while the amount of active MMP-9 was determined by titration with TIMP-2 (0.1-3 μg/mL). TIMP-1 was isolated from the medium of HT-1080 cells as described in Morodomi et al., Biochem J., 285, 603 (1992).
(§2) Substrates were prepared as 10 mM stock solutions in dimethylsulfoxide (DMSO). Fluorescent assays were performed at λex =325 nm and λem =393 nm, which should encounter no interference from Trp residues, using a Hitachi fluorescence spectrophotometer F-3010. Initial total hydrolysis assays were run at a substrate concentration of […] to avoid filtering effects. The change in fluorescence at this concentration was 110 based on total hydrolysis of 1 μM substrate. A typical assay was carried out by incubating 100 μL of various concentrations of a substrate with 10 μL of an enzyme solution (2-20 nM) in 50 mM Tris-HCl, pH 7.5, 0.15M NaCl, 10 mM CaCl2, 0.05% Brij 35, 0.02% NaN3. The reaction was stopped by addition of 900 μl of 3% (v/v) glacial acetic acid. MMP-3 activity at pH 6.0 was measured in 50 mM sodium acetate buffer, pH 6.0, instead of Tris-HCl buffer. The amount of substrate hydrolysis was calculated based on the fluorescence values of the Mca-Arg-Pro-Lys-Pro-Gln standard solution after substraction of the reaction blank value (stopping solution added before the enzyme). Individual kinetic parameters (kcat and KM) were determined over a substrate concentration range of 2.5-75 μM and calculated by double reciprocal plots.
Target sequence in this assay (P08254 100-477): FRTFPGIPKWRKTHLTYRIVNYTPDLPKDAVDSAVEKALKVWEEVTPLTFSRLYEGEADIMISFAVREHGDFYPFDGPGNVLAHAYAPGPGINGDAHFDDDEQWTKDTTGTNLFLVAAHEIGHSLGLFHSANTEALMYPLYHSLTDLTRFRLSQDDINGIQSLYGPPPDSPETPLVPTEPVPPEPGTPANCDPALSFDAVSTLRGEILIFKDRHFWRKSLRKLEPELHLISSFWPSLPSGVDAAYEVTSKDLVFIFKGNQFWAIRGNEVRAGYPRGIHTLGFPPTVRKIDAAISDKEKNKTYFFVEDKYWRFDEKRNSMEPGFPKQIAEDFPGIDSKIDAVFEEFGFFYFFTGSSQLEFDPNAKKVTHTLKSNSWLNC

MMP-9 [2] = target: T2, MMP-9 (Homo sapiens, UniProt P14780); test: Fluorometric hydrolysis of synthetic Mca/Lys(Dnp) substrates by MMP-9; type: biochemical; set-up: made in house; host or cells: native secreted protein purified from culture medium of HT-1080 cells
Description: as §1, §2
Target sequence in this assay (P14780 107-707 limits assumed): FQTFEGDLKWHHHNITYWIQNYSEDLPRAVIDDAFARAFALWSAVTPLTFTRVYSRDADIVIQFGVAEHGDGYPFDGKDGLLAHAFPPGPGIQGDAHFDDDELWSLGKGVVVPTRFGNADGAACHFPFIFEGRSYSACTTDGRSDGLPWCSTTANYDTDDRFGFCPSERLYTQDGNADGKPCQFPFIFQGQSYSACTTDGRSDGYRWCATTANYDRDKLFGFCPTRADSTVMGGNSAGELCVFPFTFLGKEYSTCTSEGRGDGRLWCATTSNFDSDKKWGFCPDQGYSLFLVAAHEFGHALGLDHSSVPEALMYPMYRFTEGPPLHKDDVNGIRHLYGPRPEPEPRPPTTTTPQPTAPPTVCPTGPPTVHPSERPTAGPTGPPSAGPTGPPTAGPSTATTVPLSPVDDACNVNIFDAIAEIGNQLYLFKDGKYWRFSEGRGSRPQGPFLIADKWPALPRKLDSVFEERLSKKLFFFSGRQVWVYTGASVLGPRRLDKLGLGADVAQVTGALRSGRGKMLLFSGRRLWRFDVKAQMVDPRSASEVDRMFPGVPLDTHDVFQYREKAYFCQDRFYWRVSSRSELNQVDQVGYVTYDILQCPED

MMP-3 [3] = target: T1, MMP-3; test: Fluorometric hydrolysis of synthetic Mca/Lys(Dnp) substrates by MMP-3; type: biochemical; set-up: made in house; host or cells: native secreted protein purified from culture medium of human rheumatoid synovial cells; details: Edman degradation analysis after 36-72 hour treatment of substrate with MMP
Target sequence in this assay (P08254 100-477): as the sequence (P08254 100-477) above

MMP-2 [4] = target: T3, MMP-2 (Homo sapiens, UniProt P08253); test: Fluorometric hydrolysis of synthetic Mca/Lys(Dnp) substrates by MMP-2; type: biochemical; set-up: made in house; host or cells: native secreted protein purified from culture medium of human rheumatoid synovial cells
T3 sequence (P08253 110-660): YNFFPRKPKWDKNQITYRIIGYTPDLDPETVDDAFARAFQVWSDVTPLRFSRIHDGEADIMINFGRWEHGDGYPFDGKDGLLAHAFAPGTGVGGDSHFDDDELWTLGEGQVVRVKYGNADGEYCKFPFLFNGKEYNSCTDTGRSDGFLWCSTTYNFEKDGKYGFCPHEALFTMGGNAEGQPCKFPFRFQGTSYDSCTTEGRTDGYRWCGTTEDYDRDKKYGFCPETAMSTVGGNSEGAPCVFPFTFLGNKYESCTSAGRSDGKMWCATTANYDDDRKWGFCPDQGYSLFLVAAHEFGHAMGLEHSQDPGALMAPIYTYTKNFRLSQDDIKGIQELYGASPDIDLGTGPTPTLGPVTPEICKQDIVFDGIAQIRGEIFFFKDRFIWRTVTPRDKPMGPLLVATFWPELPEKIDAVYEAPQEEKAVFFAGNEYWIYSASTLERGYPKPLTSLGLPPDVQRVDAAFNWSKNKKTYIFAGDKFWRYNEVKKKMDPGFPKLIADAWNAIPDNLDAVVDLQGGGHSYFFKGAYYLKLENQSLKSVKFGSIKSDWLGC
Description: as §1, §2

MMP-1 [5] = target: T4, MMP-1 (Homo sapiens, UniProt P03956); test: Fluorometric hydrolysis of synthetic Mca/Lys(Dnp) substrates by MMP-1; type: biochemical; set-up: made in house; host or cells: native secreted protein purified from culture medium of human rheumatoid synovial cells
T4 sequence (P03956 100-469): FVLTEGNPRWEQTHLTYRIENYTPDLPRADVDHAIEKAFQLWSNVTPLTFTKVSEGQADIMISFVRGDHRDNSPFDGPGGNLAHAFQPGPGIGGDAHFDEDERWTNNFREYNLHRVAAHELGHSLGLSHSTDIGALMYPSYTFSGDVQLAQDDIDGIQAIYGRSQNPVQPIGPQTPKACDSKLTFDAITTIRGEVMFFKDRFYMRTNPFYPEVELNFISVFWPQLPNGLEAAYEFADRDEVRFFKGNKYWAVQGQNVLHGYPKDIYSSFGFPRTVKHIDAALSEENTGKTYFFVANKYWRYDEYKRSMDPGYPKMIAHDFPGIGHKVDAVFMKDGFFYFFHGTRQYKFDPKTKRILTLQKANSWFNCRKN
Description: as §1, §2

MMP-9 [6] = target: T2, MMP-9; test: Fluorometric hydrolysis of synthetic Mca/Lys(Dnp) substrates by MMP-9; type: biochemical; set-up: made in house; host or cells: native secreted protein purified from culture medium of HT-1080 cells; details: Edman degradation analysis after 36-72 hour treatment of substrate with MMP
Target sequence in this assay (P14780 107-707 limits assumed): as the sequence (P14780 107-707 limits assumed) above

Solubility of substrate = type: physicochemical; details: 2.5% DMSO in water; read-out: soluble up to a concentration
MMP-1 [7] = target: T4, MMP-1; details: background, literature; cited from earlier work
MMP-9 [8] = target: T2, MMP-9; details: background, literature; cited from earlier work
Target sequence in this assay (P14780 94-707, species assumed): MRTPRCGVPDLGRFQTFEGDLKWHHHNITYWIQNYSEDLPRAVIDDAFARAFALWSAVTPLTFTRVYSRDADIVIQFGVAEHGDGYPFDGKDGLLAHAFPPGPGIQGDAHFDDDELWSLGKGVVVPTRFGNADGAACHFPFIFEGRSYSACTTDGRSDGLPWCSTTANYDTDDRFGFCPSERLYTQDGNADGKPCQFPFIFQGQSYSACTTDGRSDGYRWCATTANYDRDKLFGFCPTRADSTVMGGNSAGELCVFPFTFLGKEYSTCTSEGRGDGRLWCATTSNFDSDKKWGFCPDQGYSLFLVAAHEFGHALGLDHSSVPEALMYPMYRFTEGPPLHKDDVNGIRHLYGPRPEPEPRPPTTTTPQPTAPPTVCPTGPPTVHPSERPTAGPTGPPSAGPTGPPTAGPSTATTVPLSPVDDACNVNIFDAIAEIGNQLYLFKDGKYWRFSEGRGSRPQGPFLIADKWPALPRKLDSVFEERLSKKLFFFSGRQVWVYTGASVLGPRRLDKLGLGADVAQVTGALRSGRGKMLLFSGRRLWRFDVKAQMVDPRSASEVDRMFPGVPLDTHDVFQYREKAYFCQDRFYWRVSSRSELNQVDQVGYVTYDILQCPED

MMP-2 [9] = target: T3, MMP-2; details: background, literature; cited from earlier work
MMP-7 = target: T5, MMP-7 (Homo sapiens, UniProt P09237); details: background, literature; cited from earlier work
T5 sequence (P09237 95-267): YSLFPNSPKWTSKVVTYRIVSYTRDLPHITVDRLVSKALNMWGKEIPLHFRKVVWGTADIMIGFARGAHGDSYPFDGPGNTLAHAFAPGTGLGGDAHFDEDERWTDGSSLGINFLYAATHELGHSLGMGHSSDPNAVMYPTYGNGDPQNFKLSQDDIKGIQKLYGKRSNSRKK

MMP-3 [10] = target: T1, MMP-3; details: cited from earlier work; for kcat Km: MMP-3, assay at 37° C.; for hydrolyzed by MMP-3: background, literature
Target sequence in this assay (P08254 100-477, species assumed): as the sequence (P08254 100-477) above

CCC[C@H](NC(=O)[C@H](CCC(=O)O)NC(=O)[C@@H](NC(=O)[C@@H]1CCCN1C(=O)[C@H](CCCCN)NC(=O)[C@@H]1CCCN1C(=O)[C@H](CCCNC(=N)N)NC(=O)Cc1cc(=O)oc2cc(OC)ccc12)C(C)C)C(=O)N[C@@H](Cc1c[nH]c2ccccc12)C(=O)N[C@@H](CCCNC(=N)N)C(=O)N[C@@H](CCCCNc1ccc([N+](=O)[O-])cc1[N+](=O)[O-])C(N)=O [NFF-3, Mca-Arg-Pro-Lys-Pro-Val-Glu-Nva-Trp-Arg-Lys(Dnp)-NH2] (Mca-RPKPVE[Nva]WRK(Dnp)-NH2)
kcat /Km (MMP-3 [1]; MMP-3, 25° C.): 65,700 S^-1 M^-1 | kcat /Km (MMP-3 [1]; MMP-3, 37° C.): 218,000 S^-1 M^-1 | hydrolysis by MMP-3 (MMP-3 [1]; comparison of synthetic substrates): most rapidly hydrolyzed fluorogenic MMP-3 substrate yet described | hydrolyzed faster than NFF-2 by MMP-3 (MMP-3 [1]; rate relative to NFF-2): 3.7 times | hydrolysis by MMP-9 (MMP-9 [2]): very slowly hydrolyzed | site of hydrolysis by MMP-3 (MMP-3 [3]): Glu--Nva bond | hydrolysis by MMP-2 (MMP-2 [4]): not hydrolyzed | hydrolysis by MMP-1 (MMP-1 [5]): not hydrolyzed | site of hydrolysis by MMP-9 (MMP-9 [6]): multiple sites | solubility (Solubility of substrate): ≥ 250 µM

Dnp-Pro-Cha-Gly-Cys(CH3)-His-Ala-Lys(Nma)-NH2
hydrolyzed by MMP-1 (MMP-1 [7]): hydrolyzed | hydrolyzed by MMP-9 (MMP-9 [8]): hydrolyzed

Dnp-Pro-Leu-Gly-Leu-Trp-Ala-D-Arg-NH2 (Dnp-PLGLWA[dR]-NH2; SMILES CC(C)C[C@H](NC(=O)CNC(=O)[C@H](CC(C)C)NC(=O)[C@@H]1CCCN1c1ccc([N+](=O)[O-])cc1[N+](=O)[O-])C(=O)N[C@@H](Cc1c[nH]c2ccccc12)C(=O)N[C@@H](C)C(=O)N[C@H](CCCNC(=N)N)C(N)=O) [literature fluorogenic MMP substrate]
hydrolyzed by MMP-1 (MMP-1 [7]): hydrolyzed | hydrolyzed by MMP-2 (MMP-2 [9]): hydrolyzed | hydrolyzed by MMP-7 (MMP-7): hydrolyzed | kcat Km (MMP-3 [10]): 2,200 S^-1 M^-1 | hydrolyzed by MMP-3 (MMP-3 [10]): hydrolyzed

Mca--Pro--Leu--Gly"--"Leu--Dpa--Ala--Arg--NH2
hydrolyzed by MMP-1 (MMP-1 [7]): hydrolyzed | hydrolyzed by MMP-2 (MMP-2 [9]): hydrolyzed | hydrolyzed by MMP-7 (MMP-7): hydrolyzed | kcat Km (MMP-3 [10]): 23,000 S^-1 M^-1 | hydrolyzed by MMP-3 (MMP-3 [10]): hydrolyzed
